Assay results from ChEMBL document CHEMBL1201862, “PubChem BioAssay data set” (2004).
Active and inactive are the calls of the source.

Columns and labels:
Hexokinase HKDC1 = molecular target: T1, Hexokinase HKDC1 (Homo sapiens, UniProt Q2TB90); assay: inhibition of HKDC1 glucose phosphorylation – biochemical, W721R variant, dose response (AID 504729); type: functional
T1 sequence (Q2TB90 whole entry): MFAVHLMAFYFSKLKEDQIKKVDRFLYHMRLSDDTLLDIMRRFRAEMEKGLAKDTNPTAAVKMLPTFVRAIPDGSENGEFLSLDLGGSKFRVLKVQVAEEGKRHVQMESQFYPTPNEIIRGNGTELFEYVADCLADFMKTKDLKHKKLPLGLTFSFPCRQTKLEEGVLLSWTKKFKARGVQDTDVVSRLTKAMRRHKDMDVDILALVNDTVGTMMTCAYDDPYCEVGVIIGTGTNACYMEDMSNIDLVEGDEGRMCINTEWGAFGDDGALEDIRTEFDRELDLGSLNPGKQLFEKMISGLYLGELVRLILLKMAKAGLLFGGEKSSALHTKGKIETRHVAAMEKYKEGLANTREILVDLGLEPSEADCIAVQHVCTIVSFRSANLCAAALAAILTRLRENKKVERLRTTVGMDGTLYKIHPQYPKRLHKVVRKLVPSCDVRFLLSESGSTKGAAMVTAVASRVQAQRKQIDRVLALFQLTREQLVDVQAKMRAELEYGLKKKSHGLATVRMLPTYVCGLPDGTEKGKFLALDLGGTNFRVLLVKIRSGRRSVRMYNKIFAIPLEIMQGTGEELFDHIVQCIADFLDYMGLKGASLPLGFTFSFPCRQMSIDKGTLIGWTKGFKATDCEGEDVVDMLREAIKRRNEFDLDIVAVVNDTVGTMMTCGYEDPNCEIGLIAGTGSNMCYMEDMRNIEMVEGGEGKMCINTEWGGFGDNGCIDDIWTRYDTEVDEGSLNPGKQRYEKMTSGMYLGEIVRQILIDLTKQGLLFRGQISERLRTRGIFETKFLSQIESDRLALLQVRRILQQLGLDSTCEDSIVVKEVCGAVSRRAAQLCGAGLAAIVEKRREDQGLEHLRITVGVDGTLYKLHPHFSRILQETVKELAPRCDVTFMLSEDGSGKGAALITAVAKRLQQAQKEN

[1] = molecular target: T2, E3 ubiquitin-protein ligase XIAP (Homo sapiens, UniProt P98170); assay: small molecules displacing peptide from XIAP – biochemical, IAP family, fluorescence polarization (AID 1018); type: functional
T2 sequence (P98170 whole entry): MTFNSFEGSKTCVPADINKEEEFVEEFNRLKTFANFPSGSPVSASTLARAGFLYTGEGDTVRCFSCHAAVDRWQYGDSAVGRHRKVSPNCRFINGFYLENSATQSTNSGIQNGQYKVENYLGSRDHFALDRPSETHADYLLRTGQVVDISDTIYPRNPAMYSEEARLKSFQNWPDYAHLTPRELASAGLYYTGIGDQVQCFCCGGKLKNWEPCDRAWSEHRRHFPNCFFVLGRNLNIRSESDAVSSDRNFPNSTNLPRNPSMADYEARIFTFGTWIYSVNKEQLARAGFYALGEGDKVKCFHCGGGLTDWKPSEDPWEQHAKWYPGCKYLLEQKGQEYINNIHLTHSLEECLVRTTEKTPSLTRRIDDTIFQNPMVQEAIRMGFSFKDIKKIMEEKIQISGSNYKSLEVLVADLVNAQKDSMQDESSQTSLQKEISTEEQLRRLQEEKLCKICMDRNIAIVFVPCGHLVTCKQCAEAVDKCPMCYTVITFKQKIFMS

[2] = molecular target: T2, E3 ubiquitin-protein ligase XIAP; assay: Counter Screen using XIAP-Bir3 for Chemical Antagonists of Bir1/2 domains of IAP-family anti-apoptotic proteins. [Related pubchem assays (depositor defined):AID1018, AID1449, AID1514, AID1638, AID1749, AID1750, AID488957, AID488963]
[3] = molecular target: Peroxisome proliferator-activated receptor gamma/Nuclear receptor coactivator 3 (Homo sapiens, UniProt P37231); assay: (§1) TR-FRET dose response biochemical High Throughput Screening assay for agonists of the steroid receptor coactivator 3 (SRC-3) recruitment by the peroxisome proliferator-activated receptor gamma (PPAR gamma): non-selective agonists. [Related pubchem assays: 1301 (Confirmation screen.), 1048 (Primary screen.)]; type: functional
HeLa = assay: ATP-based viability loss in HeLa cells – cell-based, CellTiter-Glo luminescence, cherry-pick samples, cytotoxicity control for MITF activator project, dose response (AID 540259); type: functional; settings: Homo sapiens
[4] = molecular target: Peroxisome proliferator-activated receptor gamma/Nuclear receptor coactivator 1 (Homo sapiens, UniProt P37231); assay: as §1, with “1 (SRC-1)” for “3 (SRC-3)”, “assays (depositor defined):AID1300, AID1808, AID504735, AID631]” for “assays: 1301 (Confirmation screen.), 1048 (Primary screen.)]”; type: protein assay
Chain of Peroxisome proliferator-activated receptor gamma/Nuclear receptor coactivator 1 (P37231 whole entry): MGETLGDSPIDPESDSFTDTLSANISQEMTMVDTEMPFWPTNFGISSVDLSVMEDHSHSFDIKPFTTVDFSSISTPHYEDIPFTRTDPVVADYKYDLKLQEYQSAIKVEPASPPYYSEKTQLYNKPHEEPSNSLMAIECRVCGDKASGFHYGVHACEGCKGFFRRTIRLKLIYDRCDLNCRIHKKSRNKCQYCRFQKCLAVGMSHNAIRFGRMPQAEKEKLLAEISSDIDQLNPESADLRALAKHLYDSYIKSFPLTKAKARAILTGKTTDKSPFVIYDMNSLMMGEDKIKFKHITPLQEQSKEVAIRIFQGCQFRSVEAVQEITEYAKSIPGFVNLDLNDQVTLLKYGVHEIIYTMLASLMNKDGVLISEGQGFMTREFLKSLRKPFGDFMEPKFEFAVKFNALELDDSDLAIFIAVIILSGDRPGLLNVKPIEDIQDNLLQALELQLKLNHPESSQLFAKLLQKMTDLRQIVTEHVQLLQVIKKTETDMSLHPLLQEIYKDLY
Chain of Peroxisome proliferator-activated receptor gamma/Nuclear receptor coactivator 1 (Q15788 whole entry, further chain): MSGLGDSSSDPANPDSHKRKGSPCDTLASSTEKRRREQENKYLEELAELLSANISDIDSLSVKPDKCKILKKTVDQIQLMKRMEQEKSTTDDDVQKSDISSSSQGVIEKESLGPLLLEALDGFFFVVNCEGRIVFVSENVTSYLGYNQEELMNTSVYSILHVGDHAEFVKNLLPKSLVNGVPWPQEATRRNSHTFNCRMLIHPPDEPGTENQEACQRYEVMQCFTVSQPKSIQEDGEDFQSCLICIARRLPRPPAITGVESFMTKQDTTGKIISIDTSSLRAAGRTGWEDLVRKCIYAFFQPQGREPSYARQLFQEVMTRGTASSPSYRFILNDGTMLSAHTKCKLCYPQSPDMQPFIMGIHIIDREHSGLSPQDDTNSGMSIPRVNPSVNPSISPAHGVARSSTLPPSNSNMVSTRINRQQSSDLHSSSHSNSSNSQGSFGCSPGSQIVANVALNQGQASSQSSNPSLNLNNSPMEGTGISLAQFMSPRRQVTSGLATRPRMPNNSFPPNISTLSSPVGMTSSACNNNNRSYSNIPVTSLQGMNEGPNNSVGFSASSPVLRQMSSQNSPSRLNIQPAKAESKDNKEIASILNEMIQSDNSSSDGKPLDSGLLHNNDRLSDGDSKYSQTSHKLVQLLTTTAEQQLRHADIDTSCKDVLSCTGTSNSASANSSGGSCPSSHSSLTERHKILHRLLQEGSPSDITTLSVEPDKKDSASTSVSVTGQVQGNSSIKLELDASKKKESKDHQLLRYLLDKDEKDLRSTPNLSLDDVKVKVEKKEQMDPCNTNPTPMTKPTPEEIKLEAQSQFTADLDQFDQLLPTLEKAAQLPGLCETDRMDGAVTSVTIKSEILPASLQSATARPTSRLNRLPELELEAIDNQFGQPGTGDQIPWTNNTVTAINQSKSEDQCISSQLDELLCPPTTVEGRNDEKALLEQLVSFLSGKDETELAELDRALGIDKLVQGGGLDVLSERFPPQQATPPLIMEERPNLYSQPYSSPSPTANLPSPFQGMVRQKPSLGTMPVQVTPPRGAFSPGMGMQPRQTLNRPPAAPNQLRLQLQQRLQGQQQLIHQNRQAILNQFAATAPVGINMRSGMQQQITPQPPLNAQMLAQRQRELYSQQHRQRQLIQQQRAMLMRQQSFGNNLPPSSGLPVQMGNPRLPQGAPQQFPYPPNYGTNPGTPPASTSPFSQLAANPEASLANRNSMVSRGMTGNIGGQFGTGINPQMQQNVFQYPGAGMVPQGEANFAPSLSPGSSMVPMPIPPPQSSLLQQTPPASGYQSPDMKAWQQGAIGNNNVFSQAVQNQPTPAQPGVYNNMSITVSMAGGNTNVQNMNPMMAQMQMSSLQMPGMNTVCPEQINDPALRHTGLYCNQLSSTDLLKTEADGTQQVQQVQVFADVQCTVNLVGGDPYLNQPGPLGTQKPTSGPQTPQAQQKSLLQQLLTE

[5] = molecular target: Peroxisome proliferator-activated receptor gamma/Nuclear receptor coactivator 2 (Homo sapiens, UniProt P37231); assay: TR-FRET dose response biochemical High Throughput Screening assay for agonists of the steroid receptor coactivator 2 (SRC-2) recruitment by the peroxisome proliferator-activated receptor gamma (PPAR gamma): non-selective agonists. [Related pubchem assays: 1297, 1032 ]; type: functional
Chain of Peroxisome proliferator-activated receptor gamma/Nuclear receptor coactivator 2 (P37231 whole entry): as the sequence (P37231 whole entry) above
Chain of Peroxisome proliferator-activated receptor gamma/Nuclear receptor coactivator 2 (Q15596 whole entry, further chain): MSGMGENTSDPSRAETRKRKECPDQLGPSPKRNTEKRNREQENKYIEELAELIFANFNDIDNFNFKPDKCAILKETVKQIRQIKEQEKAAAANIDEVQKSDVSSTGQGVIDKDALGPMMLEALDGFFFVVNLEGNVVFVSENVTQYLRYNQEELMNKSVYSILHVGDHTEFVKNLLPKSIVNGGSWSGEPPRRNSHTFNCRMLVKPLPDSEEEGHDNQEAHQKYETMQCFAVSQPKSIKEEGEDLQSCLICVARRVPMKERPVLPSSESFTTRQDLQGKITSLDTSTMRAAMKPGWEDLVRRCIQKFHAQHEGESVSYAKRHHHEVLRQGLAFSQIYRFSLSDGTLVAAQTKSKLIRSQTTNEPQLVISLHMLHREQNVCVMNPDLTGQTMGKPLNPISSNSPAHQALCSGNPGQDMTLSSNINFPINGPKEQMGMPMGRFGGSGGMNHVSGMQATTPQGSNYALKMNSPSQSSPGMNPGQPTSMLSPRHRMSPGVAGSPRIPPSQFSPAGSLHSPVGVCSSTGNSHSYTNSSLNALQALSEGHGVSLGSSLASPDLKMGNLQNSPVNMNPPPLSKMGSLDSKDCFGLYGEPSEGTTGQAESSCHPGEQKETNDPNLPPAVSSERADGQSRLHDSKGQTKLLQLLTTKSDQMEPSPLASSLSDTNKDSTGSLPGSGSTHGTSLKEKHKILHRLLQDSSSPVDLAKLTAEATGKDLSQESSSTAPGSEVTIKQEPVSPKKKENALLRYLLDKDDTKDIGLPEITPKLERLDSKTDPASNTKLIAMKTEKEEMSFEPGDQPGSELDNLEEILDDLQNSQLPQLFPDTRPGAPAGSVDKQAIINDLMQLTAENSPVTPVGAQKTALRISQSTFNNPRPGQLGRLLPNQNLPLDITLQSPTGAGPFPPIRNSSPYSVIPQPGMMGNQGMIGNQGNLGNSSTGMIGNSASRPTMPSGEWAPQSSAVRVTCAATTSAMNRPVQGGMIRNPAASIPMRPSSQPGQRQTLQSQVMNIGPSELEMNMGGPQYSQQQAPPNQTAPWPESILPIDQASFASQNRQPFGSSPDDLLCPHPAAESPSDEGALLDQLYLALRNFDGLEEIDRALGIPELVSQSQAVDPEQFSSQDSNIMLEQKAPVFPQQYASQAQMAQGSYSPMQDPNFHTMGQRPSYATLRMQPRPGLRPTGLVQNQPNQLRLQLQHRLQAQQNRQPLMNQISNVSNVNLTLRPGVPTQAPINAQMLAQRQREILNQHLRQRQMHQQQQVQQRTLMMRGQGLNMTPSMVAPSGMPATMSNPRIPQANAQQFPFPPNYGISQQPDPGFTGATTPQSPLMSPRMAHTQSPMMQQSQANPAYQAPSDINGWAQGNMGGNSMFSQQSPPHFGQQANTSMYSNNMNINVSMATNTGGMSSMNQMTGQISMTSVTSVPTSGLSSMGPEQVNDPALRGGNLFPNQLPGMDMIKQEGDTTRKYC

Cytochrome P450 2D6 = Cytochrome P450 2D6 (Homo sapiens, UniProt P10635);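 note: CYP2D6 member of a cytochrome P450 panel assay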
[6] = molecular target: G-protein coupled receptor 55 (Homo sapiens, UniProt Q9Y2T6); assay: inhibition of LPI-stimulated GPR55 beta-arrestin translocation – imaging, U2OS, beta-arrestin-GFP, LPI agonist, primary screen (AID 2013); type: functional;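 note: antagonist potency measured as reduced agonist-driven arrestin aggregation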
Chain of G-protein coupled receptor 55 (Q9Y2T6 whole entry): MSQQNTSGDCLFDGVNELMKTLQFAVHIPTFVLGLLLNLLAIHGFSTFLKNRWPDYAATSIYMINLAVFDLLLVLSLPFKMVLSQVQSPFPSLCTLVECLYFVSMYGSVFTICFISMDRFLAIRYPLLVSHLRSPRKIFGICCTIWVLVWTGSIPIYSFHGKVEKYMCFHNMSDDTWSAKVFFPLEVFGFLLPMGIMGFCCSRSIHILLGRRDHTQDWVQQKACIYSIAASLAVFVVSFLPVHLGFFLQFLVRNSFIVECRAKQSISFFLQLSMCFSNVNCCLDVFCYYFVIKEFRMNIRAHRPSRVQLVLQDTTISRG

CAAX prenyl protease 2 = CAAX prenyl protease 2 (Saccharomyces cerevisiae S288c, UniProt Q03530); type: biochemical
Trypsin = Trypsin (Sus scrofa, UniProt P00761); assay: trypsin protease activity blockade – biochemical, quenched peptide fluorescence, cherry-pick, selectivity assay for Rce1 protease inhibitor project, dose response (AID 488789)
Chain of Trypsin (P00761 whole entry): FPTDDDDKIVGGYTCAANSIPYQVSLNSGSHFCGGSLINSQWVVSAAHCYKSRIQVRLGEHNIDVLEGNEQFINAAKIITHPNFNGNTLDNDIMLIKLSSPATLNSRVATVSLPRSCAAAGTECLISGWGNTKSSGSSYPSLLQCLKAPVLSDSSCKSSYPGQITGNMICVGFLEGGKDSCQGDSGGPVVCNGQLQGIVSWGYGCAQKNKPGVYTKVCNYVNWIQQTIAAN

Cc1cccc2c(N=NC(=O)c3ccc(NS(=O)(=O)c4cccs4)cc3)c(O)[nH]c12
IC50 (Hexokinase HKDC1): 15.5 µM (active)

CC1(C)CC(=O)N(CC(=O)O)c2ccccc2S1(=O)=O
IC50 [1]: > 100 µM (not active) | IC50 [2]: > 100 µM (inactive)

CC(C)Nc1nnc(SCC(=O)Nc2ccc3c(c2)C(=O)c2ccccc2C3=O)s1
IC50 (Hexokinase HKDC1): 29.7 µM (inactive)

O=C(Nc1ccccc1)c1ccc(-c2ccccc2)s1
EC50 [3]: 35 µM (not active) | AC50 (HeLa): 48 µM (active) | EC50 [4]: 8.84 µM (active) | EC50 [5]: 10.6 µM (not active)

O=C1C=C(c2cccs2)CC(c2cccs2)C1n1cnc([N+](=O)[O-])c1 (stereo not given)
EC50 [3]: > 79.4 µM (not active) | EC50 [4]: 18.5 µM (inactive) | EC50 [5]: 20.7 µM (not active) | AC50 (Cytochrome P450 2D6): 15.8 µM (inconclusive)

CCOc1ccc(NC(=O)c2ccccc2OCC(=O)c2ccccc2)cc1
IC50 [6]: 1.74 µM (active)

Cc1cccc(/C=N/NC(=O)c2ccc(Br)cc2)c1
AC50 (CAAX prenyl protease 2): 7.44 µM (active) | AC50 (Trypsin): 7.5 µM (active)
